Laboratory results from US20040121946A9, “Inducing cellular immune responses to her2/neu using peptide and nucleic acid compositions” (priority 2002, published 2004).
Where a SMILES comes first, the peptide text is derived from it. Where no end group is shown, it is not given here. [ ]: non-standard residue; d: D form. Abu = CC[C@H](N)C(=O)O

Columns and labels:
[1] = test system: peptide-pulsed target cells and transfected cells endogenously expressing the antigen; assay: Recall CTL responses of PBMCs from ovarian cancer patients; assay type: cell-based, human; details: for CTL Tumor / CTL Wildtype: data from ovarian cancer patients; for recognition by CTLs from cancer patient PBMCs: two patients with ovarian cancer, peptide-pulsed targets and transfected cells
From the text: Immunogenicity was additionally confirmed using PBMCs isolated from cancer patients. Briefly, PBMCs were isolated from two patients with ovarian cancer, re-stimulated with peptide-pulsed monocytes and assayed for the ability to recognize peptide-pulsed target cells as well as transfected cells endogenously expressing the antigen.

HLA-A*3301 = HLA-A*3301 (Homo sapiens, UniProt P04439, A270S/D185E/E176V/E277Q/E87N/F33T/G231S/H175R/I121M/I218V/I322F/K168Q/K210R/L300P/L318F/M331R/P217A/Q86R/Q94H/R138Q/T323A/T345S/T97I/V358M/Y195H); assay type: binding; details: Table XXIII, HLA-A3 supermotif-bearing peptides
HLA-A*0301 = HLA-A*0301 (Homo sapiens, UniProt P04439); assay type: binding; details: Table XXIII, HLA-A3 supermotif-bearing peptides
HLA-A*6801 = HLA-A*6801 (Homo sapiens, UniProt P04439, A269V/D185E/E176V/E277Q/E87N/F33Y/G231S/I121M/I166T/I218V/L180W/L300P/L318F/N151K/P208A/P217A/Q86R/R169H/T345S); assay type: binding; details: Table XXIII, HLA-A3 supermotif-bearing peptides
HLA-A*3101 = HLA-A*3101 (Homo sapiens, UniProt P04439, A270S/D185E/E176V/E277Q/F33T/G231S/G80R/H175R/I121M/I218V/I322F/K168Q/L300P/L318F/M331R/P217A/Q94H/R138Q/T323A/T345S/T97I/V358M); assay type: binding; details: Table XXIII, HLA-A3 supermotif-bearing peptides
HLA-A*1101 = HLA-A*1101 (Homo sapiens, UniProt P04439, A114D/D185E/E176A/F33Y/L180Q/S129P/T187R); assay type: binding; details: Table XXIII, HLA-A3 supermotif-bearing peptides
Chain of HLA-A*1101 (P04439 25-365 limits assumed, stated change not applied): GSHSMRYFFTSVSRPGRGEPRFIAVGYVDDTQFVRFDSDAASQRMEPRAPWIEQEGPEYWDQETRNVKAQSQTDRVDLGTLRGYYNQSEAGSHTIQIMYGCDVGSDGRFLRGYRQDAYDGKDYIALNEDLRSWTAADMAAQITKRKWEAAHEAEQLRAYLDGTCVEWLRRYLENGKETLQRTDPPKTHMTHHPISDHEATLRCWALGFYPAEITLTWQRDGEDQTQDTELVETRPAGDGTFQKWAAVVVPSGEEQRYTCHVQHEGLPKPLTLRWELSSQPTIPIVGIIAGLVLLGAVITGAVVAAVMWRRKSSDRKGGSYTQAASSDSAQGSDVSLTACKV

[2] = test system: A3-supertype alleles (A*0301, A*1101, A*3101, A*3301, A*6801); assay: A3-supertype cross-reactive binding; set-up: species or system human; details: of five A3-supertype alleles tested

Compound | CTL Tumor [1] | CTL Wildtype [1] | recognition by CTLs from cancer patient PBMCs [1] | IC50 (HLA-A*3301) [nM] | IC50 (HLA-A*0301) [nM] | IC50 (HLA-A*6801) [nM] | IC50 (HLA-A*3101) [nM] | IC50 (HLA-A*1101) [nM] | No. of A3 Alleles Crossbound [2]
CC(C)C[C@H](NC(=O)[C@@H](N)Cc1c[nH]cn1)C(=O)N[C@@H](Cc1ccc(O)cc1)C(=O)N[C@@H](CCC(N)=O)C(=O)NCC(=O)N[C@@H](CS)C(=O)N[C@@H](CCC(N)=O)C(=O)N[C@H](C(=O)N[C@H](C(=O)O)C(C)C)C(C)C | 1/2 | 2/2 |  |  |  |  |  |  | 
CC[C@H](C)[C@H](N)C(=O)N[C@@H](CC(C)C)C(=O)N[C@@H](Cc1c[nH]cn1)C(=O)N[C@@H](CC(N)=O)C(=O)NCC(=O)N[C@@H](C)C(=O)N[C@@H](Cc1ccc(O)cc1)C(=O)N[C@@H](CO)C(=O)N[C@@H](CC(C)C)C(=O)O | 2/2 | 2/2 |  |  |  |  |  |  | 
CSCC[C@H](NC(=O)[C@@H](N)C(C)C)C(=O)N[C@@H](C)C(=O)NCC(=O)N[C@H](C(=O)NCC(=O)N[C@@H](CO)C(=O)N1CCC[C@H]1C(=O)N[C@@H](Cc1ccc(O)cc1)C(=O)N[C@H](C(=O)O)C(C)C)C(C)C | 1/2 | 1/2 |  |  |  |  |  |  | 
CC(C)C[C@H](NC(=O)[C@@H](N)Cc1c[nH]cn1)C(=O)N[C@@H](Cc1ccc(O)cc1)C(=O)N[C@@H](CCC(N)=O)C(=O)NCC(=O)N[C@@H](CS)C(=O)N[C@@H](CCC(N)=O)C(=O)N[C@H](C(=O)N[C@H](C(=O)O)C(C)C)C(C)C [Her2/neu.48] |  |  | recognized in 2 donors |  |  |  |  |  | 
CC[C@H](C)[C@H](NC(=O)[C@H](CC(C)C)NC(=O)[C@@H](N)C(C)C)C(=O)N[C@@H](CCC(N)=O)C(=O)N[C@@H](CCCNC(=N)N)C(=O)N[C@@H](CC(N)=O)C(=O)N1CCC[C@H]1C(=O)N[C@@H](CCC(N)=O)C(=O)N[C@@H](CC(C)C)C(=O)O [Her2/neu.153] |  |  | recognized peptide-pulsed targets only |  |  |  |  |  | 
CC[C@H](C)[C@H](N)C(=O)N[C@H](C(=O)N[C@@H](Cc1c[nH]c2ccccc12)C(=O)N[C@@H](CCCCN)C(=O)N[C@@H](CC(=O)O)C(=O)N[C@H](C(=O)N[C@@H](Cc1ccccc1)C(=O)N[C@@H](Cc1c[nH]cn1)C(=O)N[C@@H](CCCNC(=N)N)C(=O)O)[C@@H](C)CC)C(C)C [Her2/neu.167.V2R9] |  |  |  | 16 | 143 | 15 | 6 | 286 | 
CC[C@H](C)[C@H](N)C(=O)N[C@H](C(=O)N[C@@H](Cc1c[nH]c2ccccc12)C(=O)N[C@@H](CCCCN)C(=O)N[C@@H](CC(=O)O)C(=O)N[C@H](C(=O)N[C@@H](Cc1ccccc1)C(=O)N[C@@H](Cc1c[nH]cn1)C(=O)N[C@@H](CCCCN)C(=O)O)[C@@H](C)CC)C(C)C [Her2/neu.167.V2] |  |  |  | 853 | 23 | 178 | 247 | 40 | 
CC[C@H](C)[C@H](N)C(=O)N[C@@H](CC(C)C)C(=O)N[C@@H](Cc1c[nH]c2ccccc12)C(=O)N[C@@H](CCCCN)C(=O)N[C@@H](CC(=O)O)C(=O)N[C@H](C(=O)N[C@@H](Cc1ccccc1)C(=O)N[C@@H](Cc1c[nH]cn1)C(=O)N[C@@H](CCCCN)C(=O)O)[C@@H](C)CC [Her2/neu.167] |  |  |  | 967 | 39 | 1740 | 82 | 19 | 
CC[C@H](NC(=O)CNC(=O)CNC(=O)[C@H](C)NC(=O)[C@H](CC)NC(=O)[C@@H](NC(=O)[C@@H](N)[C@@H](C)O)C(C)C)C(=O)N[C@@H](C)C(=O)N[C@@H](CCCCN)C(=O)O [Her2/neu.218.B3B7K9] (H-TV[Abu]AGG[Abu]AK-OH) |  |  |  | > 10000 | 24 | 7.3 | > 10000 | 29 | 3
CC[C@H](NC(=O)CNC(=O)CNC(=O)[C@H](C)NC(=O)[C@H](CC)NC(=O)[C@@H](NC(=O)[C@@H](N)[C@@H](C)O)C(C)C)C(=O)N[C@@H](C)C(=O)N[C@@H](CCCNC(=N)N)C(=O)O [Her2/neu.218.B3B7] (H-TV[Abu]AGG[Abu]AR-OH) |  |  |  | 242 | 314 | 8 | 247 | 111 | 5
CC(C)[C@H](NC(=O)[C@@H](N)[C@@H](C)O)C(=O)N[C@@H](CS)C(=O)N[C@@H](C)C(=O)NCC(=O)NCC(=O)N[C@@H](CS)C(=O)N[C@@H](C)C(=O)N[C@@H](CCCNC(=N)N)C(=O)O [Her2/neu.218] |  |  |  | 326 | > 10000 | 83 | 129 | 261 | 4
CC[C@H](C)[C@H](NC(=O)[C@@H](N)CCCCN)C(=O)N[C@@H](Cc1ccccc1)C(=O)NCC(=O)N[C@@H](CO)C(=O)N[C@@H](CC(C)C)C(=O)N[C@@H](C)C(=O)N[C@@H](Cc1ccccc1)C(=O)N[C@@H](CC(C)C)C(=O)O [Her2/neu.369] |  |  | recognized in 2 donors |  |  |  |  |  | 
CC[C@H](C)[C@H](N)C(=O)N[C@@H](CC(C)C)C(=O)N[C@@H](Cc1c[nH]cn1)C(=O)N[C@@H](CC(N)=O)C(=O)NCC(=O)N[C@@H](C)C(=O)N[C@@H](Cc1ccc(O)cc1)C(=O)N[C@@H](CO)C(=O)N[C@@H](CC(C)C)C(=O)O [Her2/neu.435] |  |  | recognized in 2 donors |  |  |  |  |  | 
CC[C@H](C)[C@H](N)C(=O)N[C@H](C(=O)N[C@@H](Cc1c[nH]c2ccccc12)C(=O)N[C@@H](CC(C)C)C(=O)NCC(=O)N[C@@H](CC(C)C)C(=O)N[C@@H](CCCNC(=N)N)C(=O)N[C@@H](CO)C(=O)N[C@@H](CC(C)C)C(=O)N[C@@H](CCCCN)C(=O)O)C(C)C [Her2/neu.450.V2K10] |  |  |  | 2070 | 3.9 | 12 | 273 | 128 | 4
CC[C@H](C)[C@H](N)C(=O)N[C@H](C(=O)N[C@@H](Cc1c[nH]c2ccccc12)C(=O)N[C@@H](CC(C)C)C(=O)NCC(=O)N[C@@H](CC(C)C)C(=O)N[C@@H](CCCNC(=N)N)C(=O)N[C@@H](CO)C(=O)N[C@@H](CC(C)C)C(=O)N[C@@H](CCCNC(=N)N)C(=O)O)C(C)C [Her2/neu.450.V2] |  |  |  | 193 | 234 | 7.3 | 11 |  | 4
CC[C@H](C)[C@H](N)C(=O)N[C@@H](CO)C(=O)N[C@@H](Cc1c[nH]c2ccccc12)C(=O)N[C@@H](CC(C)C)C(=O)NCC(=O)N[C@@H](CC(C)C)C(=O)N[C@@H](CCCNC(=N)N)C(=O)N[C@@H](CO)C(=O)N[C@@H](CC(C)C)C(=O)N[C@@H](CCCNC(=N)N)C(=O)O [Her2/neu.450] |  |  |  | 223 | 268 | 73 | 6.9 | 2220 | 4
CC[C@H](C)[C@H](NC(=O)CNC(=O)[C@H](Cc1ccccc1)NC(=O)[C@@H](NC(=O)[C@@H](NC(=O)CNC(=O)[C@H](CC(C)C)NC(=O)[C@@H](NC(=O)[C@@H](N)C(C)C)C(C)C)C(C)C)C(C)C)C(=O)O [Her2/neu.665] |  |  | recognized by CTLs from only one of the two patients |  |  |  |  |  | 
CC(C)C[C@H](NC(=O)[C@H](CC(C)C)NC(=O)[C@@H](N)CCCNC(=N)N)C(=O)N[C@@H](CCC(N)=O)C(=O)N[C@@H](CCC(=O)O)C(=O)N[C@H](C(=O)N[C@@H](CCC(=O)O)C(=O)N[C@@H](CC(C)C)C(=O)N[C@H](C(=O)O)C(C)C)[C@@H](C)O [Her2/neu.689] |  |  | is also an epitope |  |  |  |  |  | 
CSCC[C@H](NC(=O)[C@@H](N)C(C)C)C(=O)N[C@@H](C)C(=O)NCC(=O)N[C@H](C(=O)NCC(=O)N[C@@H](CO)C(=O)N1CCC[C@H]1C(=O)N[C@@H](Cc1ccc(O)cc1)C(=O)N[C@H](C(=O)O)C(C)C)C(C)C [Her2/neu.773] |  |  | recognized by CTLs from only one of the two patients |  |  |  |  |  | 
CC(C)C[C@H](NC(=O)[C@H](CCC(N)=O)NC(=O)[C@@H](NC(=O)[C@@H](NC(=O)[C@H](CO)NC(=O)[C@@H](NC(=O)[C@H](CC(C)C)NC(=O)[C@@H](N)CS)[C@@H](C)O)[C@@H](C)O)C(C)C)C(=O)N[C@H](C(=O)O)C(C)C [Her2/neu.789] |  |  | recognized peptide-pulsed targets only |  |  |  |  |  | 
CC(C)C[C@H](NC(=O)[C@@H]1CCCN1C(=O)[C@@H](NC(=O)[C@H](C)N)C(C)C)C(=O)N[C@@H](CC(=O)O)C(=O)N[C@@H](CO)C(=O)N[C@H](C(=O)N[C@@H](Cc1ccccc1)C(=O)N[C@@H](Cc1ccc(O)cc1)C(=O)N[C@@H](CCCNC(=N)N)C(=O)O)[C@@H](C)O [Her2/neu.997.V2] |  |  |  | 2640 |  | 73 | 30000 | 88 | 2
HVVPWDQLFR [Her2/neu.478.V2] |  |  |  | 193 | 7330 | 3.6 |  | 1330 | 3
TILWKDIFHK [Her2/neu.166] |  |  |  | 690 | 256 | 200 | 487 | 1.7 | 
